Three compounds from US20210078958A1, “QUINAZOLINE DERIVATIVE AND USE THEREOF” (MEDSHINE DISCOVERY INC., priority 2017, published 2021) can be followed below.

Broadly, the IC50 is the midpoint of a concentration-inhibition curve. A low value points to greater potency in that assay.

The subject of one test is BT-474 cell. The test is described as follows: inhibitory activity on cell proliferation (Cell-Titer-Glo), BT-474. In kind it is cell-based. The settings on record: Homo sapiens, BT-474, 72 h; incubation for 3 days, Cell-Titer-Glo. The text has this: Purpose of the assay: to detect the inhibitory activity of the test compounds on cell proliferation.
Principle of the assay: the luciferase in a Cell-Titer-Glo reagent produces oxidized luciferin with luciferin, oxygen and ATP as reaction substrates, and releases energy in the form of light. Since the luciferase reaction requires ATP, the total amount of light generated by the reaction is proportional to the total amount of ATP that reflects cell viability.
Cell Titer-Glo cell viability assay kit with luminescence (Promega #G7573)
According to the schematic diagram of the cell seed plate, cells were seeded in a 384- or 96-well plate at a density of 1000 cells per well and 25 μL per well, and 25 μL of PBS was added to the wells near edge of the place where no cells were seeded.
(1) The stock solution of the compounds has a concentration of 10 mM, and the compounds were diluted with DMSO to an initial concentration of 4 mM. The compounds were added to the plate with stock solution of compounds, 9 μL per well.
(2) The compounds were diluted with an ECHO liquid workstation, where 125 nL of compounds were added to each well of the cell plate, 125 nL of DMSO was added to each of the cell well in columns 2 and 23, and 125 nL of DMSO was added to each PBS well in columns 1 and 24.
2.3 After addition of the compounds, the cell plate was centrifuged at 1000 rpm for 1 min, and then placed in a 37° C., 5% CO2 incubator for incubation for 3 days.
The cell plate was taken out from the incubator and equilibrated at room temperature for 30 minutes. 25 μL of Cell-Titer-Glo reagent was added to each well, shaken for one minute to allow well mixed, and centrifuged at 1000 rpm for 1 minute. After 10 minutes, the plate was read on PerkinElmer Envision, and the […] reading time was set to 0.2 second.

For a further test, the target named is HER1 (ErbB1) (Homo sapiens, UniProt P00533). The test is described as follows: in vitro enzyme activity, HER1 (ErbB1). The settings on record: human ErbB1, [γ-33P]ATP, poly(Glu, Tyr) substrate. In kind it is biochemical. As for the experimental part: The purpose of this assay is to detect the in vitro inhibitory activity of compounds on HER1 (ErbB1), HER2 (ErbB2), and HER4 (ErbB4). The enzymes used in this assay are human ErbB1, ErbB2 and ErbB4. Eurofins Pharma Discovery Service provided the method for activity detection.
Steps and Method of the Assay (96-Well Plate):
A buffer solution of the test compounds in a dilution of 5-fold (5 μL), polypeptide substrate poly(Glu, Tyr) (4:1) (2.5 μL), ErbB (4-20 ng, 2.5 μL), MnCl2 (50 mM, 1.25 μL), dH2O (3.75 μL), and [γ-^33P]ATP (10 μL) were added, and incubated at 30° C. for 10 minutes. The reaction was terminated by adding 3% phosphoric acid. 10 μL of the sample was taken and transferred to Filtermate A. The filter disc was washed 3 times with 75 mM phosphoric acid and once with methanol. The filter disc was transferred to a sealed plastic bag and the scintillation mixture (4 mL) was added. The intensity of the emitted photon was detected by a scintillation luminescence counter. The CPM (times/min) of the enzyme sample was compared with the CPM of the internal control sample. The level of photon intensity reflected the degree of the tyrosine kinase activity.

Test [1] has as its system subcutaneous xenograft tumor of human esophageal carcinoma OE21 cells. In kind it is in vivo. The settings on record: 2/1.5 mg/kg; for Tumor volume (mm3) (Day 21): OE21 xenograft, Mean + SEM; for T/C (%) / TGI (%): day 21. The protocol:
Purpose of the assay: to evaluate the in vivo efficacy of the compounds to be tested on subcutaneous xenograft tumor of human esophageal carcinoma OE21 cells in a BALB/c nude mouse model.
Animals of the assay: female BALB/c nude mice, 6-8 weeks old, weighing 17-23 grams; supplier: shanghai sippr bk laboratory animals Ltd.
Human esophageal carcinoma OE21 cells were cultured in monolayer in vitro. The culture conditions were RPMI-1640 medium plus 10% fetal bovine serum, 100 U/mL penicillin, 100 U/mL streptomycin and 2 mM glutamine, 37° C., 5% CO2. The passaging was performed by conventional digestion with trypsin-EDTA twice a week. When the cell saturation was 80%-90%, the cells were collected, counted and inoculated.
0.1 ml […] OE21 cells (PBS) were inoculated subcutaneously on the right back of each mouse. When the average tumor volume reached 112 mm^3, administration to each group was started.
The test compound was formulated into a 0.15 mg/mL to 0.3 mg/mL clear or suspension solution in the solvents of 10% NMP+10% ethylene glycol stearate+80% water. 6.4 Tumor measurement and assay index
The assay index is to investigate whether tumor growth is inhibited, delayed or cured. Tumor diameter was measured twice a week with vernier caliper. The calculation formula of tumor volume is: V=0.5a×b^2, wherein a and b represent the long and short diameters of tumor, respectively.
The antitumor efficacy of the compounds were evaluated by TGI (%) or relative tumor proliferation rate T/C (%). TGI (%) reflects the tumor growth inhibition rate. TGI (%) is calculated as follows: TGI (%)=[(1−(average tumor volume at the end of administration for a certain treatment group−average tumor volume at the beginning of administration for this treatment group))/(average tumor volume at the end of treatment for a solvent control group−average tumor volume at the beginning of administration for this solvent control group)]×100%.
Relative tumor proliferation rate T/C (%): the calculation formula is as follows: T/C (%)=average tumor volume at the end of administration for a certain treatment group/average tumor volume at the end of treatment for the solvent control group×100%.
Statistical analysis included the mean and standard error (SEM) of tumor volume at each time point in each group. One-way ANOVA was used for comparison among three or more groups. […] SPSS 17.0 was used for all data analysis. p<0.05 is considered a significant difference.

Chain of HER1 (ErbB1) (P00533 25-1210): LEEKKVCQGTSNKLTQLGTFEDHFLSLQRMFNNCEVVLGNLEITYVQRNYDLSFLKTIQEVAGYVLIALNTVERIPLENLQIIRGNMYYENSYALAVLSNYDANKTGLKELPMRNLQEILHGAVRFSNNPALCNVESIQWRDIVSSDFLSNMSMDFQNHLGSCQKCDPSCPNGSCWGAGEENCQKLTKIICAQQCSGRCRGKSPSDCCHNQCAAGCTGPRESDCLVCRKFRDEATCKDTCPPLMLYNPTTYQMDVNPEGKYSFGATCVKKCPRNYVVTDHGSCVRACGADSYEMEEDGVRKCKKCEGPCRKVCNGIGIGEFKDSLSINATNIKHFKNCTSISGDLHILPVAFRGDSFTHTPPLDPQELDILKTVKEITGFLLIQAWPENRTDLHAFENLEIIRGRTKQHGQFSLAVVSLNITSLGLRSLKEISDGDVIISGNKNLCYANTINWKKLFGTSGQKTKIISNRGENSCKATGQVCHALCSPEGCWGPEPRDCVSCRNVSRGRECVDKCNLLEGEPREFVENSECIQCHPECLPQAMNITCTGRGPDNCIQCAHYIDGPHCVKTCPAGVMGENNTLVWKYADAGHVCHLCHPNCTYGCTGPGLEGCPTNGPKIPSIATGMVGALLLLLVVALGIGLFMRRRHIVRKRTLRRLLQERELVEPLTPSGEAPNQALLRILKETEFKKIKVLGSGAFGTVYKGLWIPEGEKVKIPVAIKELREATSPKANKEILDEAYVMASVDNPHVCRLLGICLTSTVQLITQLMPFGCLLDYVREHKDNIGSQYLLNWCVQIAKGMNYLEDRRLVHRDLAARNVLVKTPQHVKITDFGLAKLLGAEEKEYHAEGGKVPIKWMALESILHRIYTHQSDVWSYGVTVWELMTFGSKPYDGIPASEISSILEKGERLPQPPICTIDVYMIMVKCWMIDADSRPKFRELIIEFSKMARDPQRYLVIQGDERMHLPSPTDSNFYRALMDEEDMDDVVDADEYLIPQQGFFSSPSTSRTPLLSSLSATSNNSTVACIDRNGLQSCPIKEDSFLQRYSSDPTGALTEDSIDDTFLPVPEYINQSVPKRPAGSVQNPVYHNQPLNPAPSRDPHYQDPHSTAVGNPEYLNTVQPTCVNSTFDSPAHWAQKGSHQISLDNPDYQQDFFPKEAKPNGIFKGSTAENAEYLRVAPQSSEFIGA

For the compound `C=CC(=O)N1[C@@H]2CC[C@H]1C[C@H](Oc1cc3c(Nc4ccc(Cl)c(Cl)c4F)ncnc3cc1OC)C2` [Example 8], the IC50 turned out to be 0.39 nM with BT-474 cell and 6 nM at HER1 (ErbB1).
For the compound `C=CC(=O)N1[C@@H]2CC[C@H]1C[C@H](Nc1cc3c(Nc4ccc(Cl)c(Cl)c4F)ncnc3cc1OC)C2` [Example 38], in test [1], the “Tumor volume (mm3) (Day 21)” value came out at 55 ± 13 mm3, the “T/C (%)” value came out at 5.82% and the “TGI (%)” value is recorded as 106.65%. In addition, the IC50 against HER1 (ErbB1) turned out to be 8 nM.
Regarding `C=CC(=O)N1CCC(Oc2cc3c(Nc4ccc(Cl)c(Cl)c4F)ncnc3cc2OC)CC1` [Poziotinib, reference compound], in test [1], the “Tumor volume (mm3) (Day 21)” value is 57 ± 7 mm3, the “T/C (%)” value turned out to be 6.05% and the “TGI (%)” value is 106.65%.
